In ChEMBL document CHEMBL5291721, “A preclinical secondary pharmacology resource illuminates target-adverse drug reaction associations of marketed drugs” (Nat Commun, 2023):

What was measured:
Endothelin-1 receptor = target: T1, Endothelin-1 receptor (Homo sapiens, UniProt P25101)
T1 sequence (P25101 whole entry): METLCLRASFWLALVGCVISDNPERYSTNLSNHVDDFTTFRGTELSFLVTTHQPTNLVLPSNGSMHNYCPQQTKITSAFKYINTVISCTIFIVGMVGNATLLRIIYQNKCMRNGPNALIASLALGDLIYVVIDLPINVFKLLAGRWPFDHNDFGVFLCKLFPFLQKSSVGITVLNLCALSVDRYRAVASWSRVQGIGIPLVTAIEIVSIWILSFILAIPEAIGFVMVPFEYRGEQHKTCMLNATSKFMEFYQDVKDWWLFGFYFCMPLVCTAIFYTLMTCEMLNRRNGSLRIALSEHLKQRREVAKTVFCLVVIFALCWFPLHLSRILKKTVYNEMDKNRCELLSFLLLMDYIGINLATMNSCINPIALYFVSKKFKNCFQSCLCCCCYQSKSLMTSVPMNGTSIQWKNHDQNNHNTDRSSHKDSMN

[1] = target: Kappa-type opioid receptor (Homo sapiens, UniProt P41145)
Sequence of Kappa-type opioid receptor (P41145 whole entry): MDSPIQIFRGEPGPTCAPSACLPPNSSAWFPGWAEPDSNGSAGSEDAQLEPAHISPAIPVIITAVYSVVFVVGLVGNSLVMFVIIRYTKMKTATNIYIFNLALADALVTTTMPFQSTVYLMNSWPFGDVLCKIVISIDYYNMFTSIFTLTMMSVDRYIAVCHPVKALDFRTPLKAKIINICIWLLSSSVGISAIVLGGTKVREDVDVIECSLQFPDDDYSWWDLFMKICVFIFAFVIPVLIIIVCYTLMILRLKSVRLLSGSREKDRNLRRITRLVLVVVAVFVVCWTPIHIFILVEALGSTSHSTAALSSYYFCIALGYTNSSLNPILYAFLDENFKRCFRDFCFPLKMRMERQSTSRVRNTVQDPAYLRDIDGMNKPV

[2] = target: T2, Neuropeptide Y receptor type 1 (Homo sapiens, UniProt P25929)
T2 sequence (P25929 whole entry): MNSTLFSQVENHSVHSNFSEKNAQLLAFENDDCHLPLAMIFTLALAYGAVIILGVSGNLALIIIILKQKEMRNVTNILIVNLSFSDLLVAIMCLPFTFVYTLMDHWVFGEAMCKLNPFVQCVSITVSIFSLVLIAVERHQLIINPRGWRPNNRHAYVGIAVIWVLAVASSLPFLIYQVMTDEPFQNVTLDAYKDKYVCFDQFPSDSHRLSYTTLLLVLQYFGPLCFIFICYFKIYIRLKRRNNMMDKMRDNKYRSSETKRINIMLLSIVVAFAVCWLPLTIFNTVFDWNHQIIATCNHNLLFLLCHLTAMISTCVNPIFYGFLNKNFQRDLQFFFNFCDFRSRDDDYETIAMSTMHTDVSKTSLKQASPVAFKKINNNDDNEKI

[3] = target: T3, 5-hydroxytryptamine receptor 1A (Homo sapiens, UniProt P08908); assay type: functional, cell-based
T3 sequence (P08908 whole entry): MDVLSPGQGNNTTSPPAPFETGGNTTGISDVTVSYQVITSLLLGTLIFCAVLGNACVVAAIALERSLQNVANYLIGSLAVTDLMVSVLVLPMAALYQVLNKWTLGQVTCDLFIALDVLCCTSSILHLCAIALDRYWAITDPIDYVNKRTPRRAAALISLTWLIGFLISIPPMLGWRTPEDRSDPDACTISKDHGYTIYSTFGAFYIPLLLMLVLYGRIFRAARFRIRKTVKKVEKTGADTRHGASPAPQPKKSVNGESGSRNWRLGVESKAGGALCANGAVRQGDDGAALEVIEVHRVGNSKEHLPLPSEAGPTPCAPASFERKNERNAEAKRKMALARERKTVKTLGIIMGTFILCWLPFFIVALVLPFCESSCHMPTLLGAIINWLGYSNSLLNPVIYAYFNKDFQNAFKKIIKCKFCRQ

[4] = target: T4, Cholecystokinin receptor type A (Homo sapiens, UniProt P32238)
T4 sequence (P32238 whole entry): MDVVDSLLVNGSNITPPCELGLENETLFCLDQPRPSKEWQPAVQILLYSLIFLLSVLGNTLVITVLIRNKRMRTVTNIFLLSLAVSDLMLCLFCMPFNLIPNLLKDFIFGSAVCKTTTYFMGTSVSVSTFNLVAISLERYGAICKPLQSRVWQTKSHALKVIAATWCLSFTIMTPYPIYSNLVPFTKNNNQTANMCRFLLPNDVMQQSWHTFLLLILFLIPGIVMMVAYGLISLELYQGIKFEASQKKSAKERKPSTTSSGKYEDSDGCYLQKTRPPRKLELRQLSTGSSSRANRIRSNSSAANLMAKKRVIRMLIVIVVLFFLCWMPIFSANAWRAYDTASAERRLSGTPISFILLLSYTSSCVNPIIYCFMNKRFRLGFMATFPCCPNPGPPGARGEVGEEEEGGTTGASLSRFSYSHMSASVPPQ

[5] = target: Neuronal acetylcholine receptor subunit alpha-4 (Homo sapiens, UniProt P43681)
Sequence of Neuronal acetylcholine receptor subunit alpha-4 (P43681 whole entry): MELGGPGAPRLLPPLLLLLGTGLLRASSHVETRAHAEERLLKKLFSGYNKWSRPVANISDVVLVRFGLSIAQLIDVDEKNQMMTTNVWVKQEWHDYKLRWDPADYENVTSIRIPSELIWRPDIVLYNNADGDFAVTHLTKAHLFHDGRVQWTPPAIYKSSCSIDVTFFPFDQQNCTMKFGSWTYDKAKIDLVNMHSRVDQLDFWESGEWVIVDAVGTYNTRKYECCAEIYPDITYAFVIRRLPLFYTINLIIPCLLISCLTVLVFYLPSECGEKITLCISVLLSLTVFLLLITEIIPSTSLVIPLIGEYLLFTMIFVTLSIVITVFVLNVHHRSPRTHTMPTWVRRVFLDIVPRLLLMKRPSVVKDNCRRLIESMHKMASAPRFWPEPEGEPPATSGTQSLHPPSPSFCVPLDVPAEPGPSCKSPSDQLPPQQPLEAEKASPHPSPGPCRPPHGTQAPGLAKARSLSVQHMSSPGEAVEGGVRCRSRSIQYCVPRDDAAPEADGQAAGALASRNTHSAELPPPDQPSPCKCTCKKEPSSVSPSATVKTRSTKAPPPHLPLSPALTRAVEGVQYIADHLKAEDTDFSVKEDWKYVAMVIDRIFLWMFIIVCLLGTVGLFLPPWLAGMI

Adenosine receptor A1 = target: T5, Adenosine receptor A1 (Homo sapiens, UniProt P30542)
T5 sequence (P30542 whole entry): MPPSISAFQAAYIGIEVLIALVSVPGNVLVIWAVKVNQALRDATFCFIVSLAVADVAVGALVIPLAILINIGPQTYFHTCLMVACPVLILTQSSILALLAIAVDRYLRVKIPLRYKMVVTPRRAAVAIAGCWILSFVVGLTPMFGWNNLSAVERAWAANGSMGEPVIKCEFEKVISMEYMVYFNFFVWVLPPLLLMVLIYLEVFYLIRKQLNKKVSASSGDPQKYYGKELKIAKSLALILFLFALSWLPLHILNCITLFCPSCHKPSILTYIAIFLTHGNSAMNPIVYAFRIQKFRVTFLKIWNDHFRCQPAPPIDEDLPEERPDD

Motilin receptor = Motilin receptor (Homo sapiens, UniProt O43193)
Sequence of Motilin receptor (O43193 whole entry): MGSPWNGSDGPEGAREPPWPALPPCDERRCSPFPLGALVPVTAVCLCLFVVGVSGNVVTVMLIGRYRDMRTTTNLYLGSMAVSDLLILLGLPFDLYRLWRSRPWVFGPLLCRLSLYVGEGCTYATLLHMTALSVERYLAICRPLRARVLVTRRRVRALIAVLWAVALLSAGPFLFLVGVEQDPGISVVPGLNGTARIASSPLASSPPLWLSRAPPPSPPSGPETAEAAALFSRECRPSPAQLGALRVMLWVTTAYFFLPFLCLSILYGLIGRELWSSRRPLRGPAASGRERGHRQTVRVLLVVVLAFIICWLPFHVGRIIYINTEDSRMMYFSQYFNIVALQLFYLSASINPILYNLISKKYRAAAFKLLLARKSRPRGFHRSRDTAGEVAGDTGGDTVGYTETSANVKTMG
Also: assay procedure not described here.

`CC1(C)S[C@@H]2[C@H](NC(=O)C(C(=O)O)c3ccccc3)C(=O)N2[C@H]1C(=O)O` (stereo not given in full) [CARBENICILLIN] showed an AC50 (Endothelin-1 receptor) greater than 30 µM, an AC50 [1] greater than 30 µM and an AC50 [2] greater than 30 µM. For the same compound, the AC50 [3] was greater than 30 µM, the AC50 [4] was greater than 30 µM and the AC50 [5] was greater than 30 µM. The AC50 (Adenosine receptor A1) was greater than 30 µM and the AC50 (Motilin receptor) was greater than 30 µM.
`Cc1nnc(SCC2=C(C(=O)O)N3C(=O)[C@@H](NC(=O)Cn4cnnn4)[C@H]3SC2)s1` [CEFAZOLIN] was tested, and the AC50 (Endothelin-1 receptor) was greater than 300 µM, the AC50 [1] was greater than 30 µM and the AC50 [2] was greater than 30 µM. It also gave an AC50 [3] greater than 300 µM, an AC50 [4] greater than 300 µM and an AC50 [5] greater than 300 µM. It also gave an AC50 (Adenosine receptor A1) greater than 300 µM and an AC50 (Motilin receptor) greater than 300 µM.
Work on `CC(C)(O/N=C(\C(=O)N[C@@H]1C(=O)N2C(C(=O)[O-])=C(C[n+]3ccccc3)CS[C@H]12)c1csc(N)n1)C(=O)O` [CEFTAZIDIME] yielded an AC50 (Endothelin-1 receptor) greater than 300 µM, an AC50 [1] greater than 30 µM and an AC50 [2] greater than 30 µM. The AC50 [3] was greater than 300 µM, the AC50 [4] was greater than 300 µM and the AC50 [5] was greater than 300 µM. It also gave an AC50 (Adenosine receptor A1) greater than 300 µM and an AC50 (Motilin receptor) greater than 300 µM.
`CCCNC(=O)NS(=O)(=O)c1ccc(Cl)cc1` [CHLORPROPAMIDE] was tested, and the AC50 (Endothelin-1 receptor) was greater than 30 µM, the AC50 [1] was greater than 10 µM and the AC50 [2] was greater than 30 µM. The AC50 [3] was greater than 10 µM, the AC50 [4] was greater than 30 µM and the AC50 [5] was greater than 10 µM. It also gave an AC50 (Adenosine receptor A1) greater than 30 µM and an AC50 (Motilin receptor) greater than 10 µM.
`Cc1nc(Nc2ncc(C(=O)Nc3c(C)cccc3Cl)s2)cc(N2CCN(CCO)CC2)n1` [DASATINIB] showed an AC50 (Endothelin-1 receptor) greater than 30 µM, an AC50 [1] greater than 10 µM and an AC50 [2] greater than 30 µM. It also gave an AC50 [3] greater than 30 µM, an AC50 [4] of 10.2 µM and an AC50 [5] greater than 30 µM. For the same compound, the AC50 (Adenosine receptor A1) was greater than 30 µM and the AC50 (Motilin receptor) was greater than 30 µM.
`O=C(O)Cc1ccccc1Nc1c(Cl)cccc1Cl` [DICLOFENAC] was tested, and the AC50 (Endothelin-1 receptor) was greater than 30 µM, the AC50 [1] was greater than 10 µM and the AC50 [2] was greater than 30 µM. It also gave an AC50 [3] greater than 10 µM, an AC50 [4] greater than 30 µM and an AC50 [5] greater than 10 µM. The AC50 (Adenosine receptor A1) was greater than 30 µM and the AC50 (Motilin receptor) was greater than 10 µM.
For `O=C(O)Cc1ccccc1Oc1ccc(Cl)cc1Cl` [FENCLOFENAC], the AC50 (Endothelin-1 receptor) was greater than 30 µM, the AC50 [1] was greater than 10 µM and the AC50 [2] was greater than 30 µM. The AC50 [3] was greater than 10 µM, the AC50 [4] was greater than 30 µM and the AC50 [5] was greater than 10 µM. It also gave an AC50 (Adenosine receptor A1) greater than 30 µM and an AC50 (Motilin receptor) greater than 10 µM.
`Cc1ccc(C)c(OCCCC(C)(C)C(=O)O)c1` [GEMFIBROZIL] showed an AC50 (Endothelin-1 receptor) greater than 30 µM, an AC50 [1] greater than 10 µM and an AC50 [2] greater than 30 µM. For the same compound, the AC50 [3] was greater than 10 µM, the AC50 [4] was greater than 30 µM and the AC50 [5] was greater than 10 µM. For the same compound, the AC50 (Adenosine receptor A1) was greater than 30 µM and the AC50 (Motilin receptor) was greater than 10 µM.
Compound `CC[C@H](C)C(=O)O[C@H]1C[C@@H](C)C=C2C=C[C@H](C)[C@H](CC[C@@H]3C[C@@H](O)CC(=O)O3)[C@H]21` [LOVASTATIN] has an AC50 (Endothelin-1 receptor) greater than 30 µM, an AC50 [1] greater than 10 µM and an AC50 [2] greater than 30 µM. The AC50 [3] was greater than 10 µM, the AC50 [4] was greater than 30 µM and the AC50 [5] was greater than 10 µM. For the same compound, the AC50 (Adenosine receptor A1) was greater than 30 µM and the AC50 (Motilin receptor) was greater than 10 µM.
Work on `CC(C)[C@H](N)C(=O)OCCOCn1cnc2c(=O)[nH]c(N)nc21` [VALACYCLOVIR] yielded an AC50 (Endothelin-1 receptor) greater than 30 µM, an AC50 [1] greater than 10 µM and an AC50 [2] greater than 30 µM. The AC50 [3] was greater than 10 µM, the AC50 [4] was greater than 30 µM and the AC50 [5] was greater than 10 µM. The AC50 (Adenosine receptor A1) was greater than 30 µM and the AC50 (Motilin receptor) was greater than 10 µM.
